Experimental data taken from patent US10314894B2, “Treatment of cardio-renal disease using PCSK6” (THE CLEVELAND CLINIC FOUNDATION, priority 2014, dated 2019).
Peptide text beside a SMILES is read from it.

Test system: corin activation cleavage
Assay: Protease inhibitors on corin activation cleavage in HEK293 cells expressing corin (Western blotting)
Assay type: cell-based, human
Details: 24 h, transfected HEK293 cells
Method: HEK293 cells were cultured in DMEM with 10% fetal bovine serum (FBS). HL-1 cardiomyocytes were cultured in Claycomb medium with 10% FBS, and 4 mM L-glutamine. All cells were cultured at 37° C. in humidified incubators with 5% CO2.
HEK293 and HL-1 cells were transfected with corin or PCSK6 expression plasmids. After 48-72 h, cells were lysed in a buffer containing 25 mM Tris-HCl, pH 7.4, 150 mM NaCl, 1 mM EDTA, 1% (v/v) NP-40, and 1% (v/v) protease inhibitor cocktail. Recombinant corin and PCSK6 proteins were immunoprecipitated with an anti-V5 or anti-flag antibody. Western blotting was carried out to analyze corin expression and activation or PCSK6 expression with or without reducing agents. Percentage of corin activation (corin-p vs. corin fragments) was quantified by densitometric analysis of Western blots.
To identify the corin activator, corin activation cleavage was examined in HEK293 and HL-1 cells expressing corin in the presence of protease inhibitors including benzamidine (5 mM), GM6001 (50 μM), dec-RVKR-cmk (20 μM), or ALLM (N-acetyl-leucyl-leucyl-methionine 50 μM). Liao et al., J Biol Chem 282, 27728-27735 (2007). The inhibitors were added to the cells in separate wells. After 24 h, cell lysates were prepared and corin protein was analyzed by Western blotting.

In the case of `CCCCCCCCCC(=O)N[C@@H](CCCN=C(N)N)C(=O)N[C@H](C(=O)N[C@@H](CCCCN)C(=O)N[C@@H](CCCN=C(N)N)C(=O)CCl)C(C)C` [dec-RVKR-cmk] (HELM PEPTIDE1{[CCCCCCCCCC(=O)[*:2]].R.V.K.R.[ClC[*:1]]}$$$$V2.0), the “corin activation (~40-kDa band reduced, ~190-kDa zymogen band increased)” value (dec-RVKR-cmk 20 μM) is reported as “corin activation was inhibited” and the “corin activation (~40-kDa band reduced, ~190-kDa zymogen band increased)” value (dec-RVKR-cmk 20 μM, listed as RVKR-cmk) is reported as “corin activation cleavage was inhibited”.

With `N=C(N)c1ccccc1` [benzamidine] the “corin activation (~40-kDa band reduced, ~190-kDa zymogen band increased)” value (benzamidine 5 mM) was “corin activation cleavage was inhibited”.
